Test results: the NIST ThermoML archive (doi:10.1021/je4009238)

Key:
[1] = refractive index (Na D-line) (dimensionless); xn = mol fraction of the nth substance listed; settings: 101 kPa, Liquid
[2] = xn = mol fraction of the nth substance listed; settings: 101 kPa, Liquid

CCn1cc[n+](C)c1.[Cl-] [1-ethyl-3-methylimidazolium chloride] + CN(C)C=O
Settings	mass density, [2] [kg/m3]	refractive index, [1]	viscosity, [2] [mPa·s]
288.15 K, x1 = 0.0102	958.86	1.43565	1.023
288.15 K, x1 = 0.0203	963.47	1.43836	1.156
288.15 K, x1 = 0.031	968.07	1.44091	1.188
288.15 K, x1 = 0.0417	972.24	1.44354	1.327
288.15 K, x1 = 0.0524	976.38	1.44588	1.399
288.15 K, x1 = 0.0635	980.82	1.44822	1.535
288.15 K, x1 = 0.0752	984.98	1.45067	1.765
288.15 K, x1 = 0.0867	989.33	1.45308	1.867
288.15 K, x1 = 0.0988	993.32	1.45542	2.123
288.15 K, x1 = 0.1107	997.33	1.45784	2.25
288.15 K, x1 = 0.1232	1001.39	1.46021	2.429
288.15 K, x1 = 0.1361	1005.6	1.46253	2.766
288.15 K, x1 = 0.1489	1009.6	1.46477	3.002
288.15 K, x1 = 0.1626	1013.74	1.46721	3.293
288.15 K, x1 = 0.1759	1017.7	1.46942	3.645
298.15 K, x1 = 0.0102	949.52	1.43106	0.8935
298.15 K, x1 = 0.0203	954.18	1.43346	1.007
298.15 K, x1 = 0.031	958.86	1.4364	1.03
298.15 K, x1 = 0.0417	963.18	1.43872	1.147
298.15 K, x1 = 0.0524	967.27	1.44144	1.198
298.15 K, x1 = 0.0635	971.86	1.44361	1.312
298.15 K, x1 = 0.0752	976.05	1.44626	1.501
298.15 K, x1 = 0.0867	980.59	1.44855	1.577
298.15 K, x1 = 0.0988	984.64	1.4511	1.784
298.15 K, x1 = 0.1107	988.67	1.45354	1.879
298.15 K, x1 = 0.1232	992.88	1.45597	2.014
298.15 K, x1 = 0.1361	997.07	1.45827	2.278
298.15 K, x1 = 0.1489	1001.24	1.46065	2.453
298.15 K, x1 = 0.1626	1005.4	1.46302	2.672
298.15 K, x1 = 0.1759	1009.49	1.46536	2.922
308.15 K, x1 = 0.0102	940.08	1.42654	0.7902
308.15 K, x1 = 0.0203	944.84	1.42888	0.8895
308.15 K, x1 = 0.031	949.62	1.43189	0.9058
308.15 K, x1 = 0.0417	954.02	1.43416	1.004
308.15 K, x1 = 0.0524	958.21	1.43691	1.045
308.15 K, x1 = 0.0635	962.87	1.43896	1.139
308.15 K, x1 = 0.0752	967.15	1.4419	1.297
308.15 K, x1 = 0.0867	971.78	1.44372	1.355
308.15 K, x1 = 0.0988	975.93	1.44678	1.527
308.15 K, x1 = 0.1107	980.02	1.44907	1.625
308.15 K, x1 = 0.1232	984.31	1.45167	1.705
308.15 K, x1 = 0.1361	988.59	1.45406	1.916
308.15 K, x1 = 0.1489	992.84	1.45621	2.051
308.15 K, x1 = 0.1626	997.09	1.45888	2.251
308.15 K, x1 = 0.1759	1001.24	1.46102	2.406
318.15 K, x1 = 0.0102	930.6	1.42218	0.7059
318.15 K, x1 = 0.0203	935.4	1.4245	0.794
318.15 K, x1 = 0.031	940.37	1.4275	0.8045
318.15 K, x1 = 0.0417	944.85	1.42977	0.8901
318.15 K, x1 = 0.0524	949.12	1.43252	0.923
318.15 K, x1 = 0.0635	953.87	1.43477	1.002
318.15 K, x1 = 0.0752	958.24	1.43765	1.136
318.15 K, x1 = 0.0867	962.96	1.43964	1.181
318.15 K, x1 = 0.0988	967.2	1.44253	1.327
318.15 K, x1 = 0.1107	971.44	1.445	1.404
318.15 K, x1 = 0.1232	975.73	1.44746	1.468
318.15 K, x1 = 0.1361	980.13	1.44986	1.64
318.15 K, x1 = 0.1489	984.44	1.45192	1.748
318.15 K, x1 = 0.1626	988.83	1.45477	1.905
318.15 K, x1 = 0.1759	993.01	1.45679	2.02
